Each block holds one compound with its values, some of them ahead of it.
System: 648629-189-R-J1-PDC complex spheroids viability
Experiment: Anticancer human tumor 648629-189-R-J1-PDC patient-derived bladder carcinoma cell line growth inhibition [CLK]
Settings: for IC50: curve of first compound; for viability, T/C: stronger effect = lower value
Procedure, shortened: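 Patient-derived tumor cells grown as complex spheroids with HUVEC endothelial cells and mesenchymal stem cells, treated with drug combinations. Concentrations descend in half-log steps from near clinical Cmax, or from 10 microM if Cmax unknown.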

[1] = second compound 0.0316 µM, first compound 0.0316 µM
[2] = second compound 0.0316 µM, first compound 0.1 µM
[3] = second compound 0.0316 µM, first compound 0.316 µM
[4] = second compound 0.0316 µM, first compound 1 µM
[5] = second compound 0.0316 µM, first compound 3.16 µM
[6] = second compound 0.0316 µM, first compound 10 µM
[7] = second compound 0.1 µM, first compound 0.0316 µM
[8] = second compound 0.1 µM, first compound 0.1 µM
[9] = second compound 0.1 µM, first compound 0.316 µM
[10] = second compound 0.1 µM, first compound 1 µM
[11] = second compound 0.1 µM, first compound 3.16 µM
[12] = second compound 0.1 µM, first compound 10 µM
[13] = second compound 0.316 µM, first compound 0.0316 µM
[14] = second compound 0.316 µM, first compound 0.1 µM
[15] = second compound 0.316 µM, first compound 0.316 µM
[16] = second compound 0.316 µM, first compound 1 µM
[17] = second compound 0.316 µM, first compound 3.16 µM
[18] = second compound 0.316 µM, first compound 10 µM
[19] = second compound 1 µM, first compound 0.0316 µM
[20] = second compound 1 µM, first compound 0.1 µM
[21] = second compound 1 µM, first compound 0.316 µM
[22] = second compound 1 µM, first compound 1 µM
[23] = second compound 1 µM, first compound 3.16 µM
[24] = second compound 1 µM, first compound 10 µM
[25] = second compound 3.16 µM, first compound 0.0316 µM
[26] = second compound 3.16 µM, first compound 0.1 µM
[27] = second compound 3.16 µM, first compound 0.316 µM
[28] = second compound 3.16 µM, first compound 1 µM
[29] = second compound 3.16 µM, first compound 3.16 µM
[30] = second compound 3.16 µM, first compound 10 µM
[31] = second compound 10 µM, first compound 0.0316 µM
[32] = second compound 10 µM, first compound 0.1 µM
[33] = second compound 10 µM, first compound 0.316 µM
[34] = second compound 10 µM, first compound 1 µM
[35] = second compound 10 µM, first compound 3.16 µM
[36] = second compound 10 µM, first compound 10 µM
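Wherever viability, T/C is given: drug exposure lasted seven days before viability readout; 100% = DMSO vehicle control wells.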

IC50 (second compound 0.0316 µM): < 31.6 nM | IC50 (second compound 0.1 µM): < 31.6 nM | IC50 (second compound 0.316 µM): < 31.6 nM | IC50 (second compound 1 µM): < 31.6 nM | IC50 (second compound 3.16 µM): < 31.6 nM | IC50 (second compound 10 µM): < 31.6 nM
Structure (SMILES): CC(=O)O[C@H]1C(=O)[C@@]2(C)[C@H]([C@H](OC(=O)c3ccccc3)[C@]3(O)C[C@H](OC(=O)[C@H](O)[C@@H](NC(=O)c4ccccc4)c4ccccc4)C(C)=C1C3(C)C)[C@]1(OC(C)=O)CO[C@@H]1C[C@@H]2O + CNC(=O)c1ccc(Nc2nc(OC3CCCC3)c3c(-c4ccc5nc(C)oc5c4)c[nH]c3n2)c(OC)c1
viability, T/C [1]: 11.1% | viability, T/C [2]: 9.61% | viability, T/C [3]: 10% | viability, T/C [4]: 12.1% | viability, T/C [5]: 14.1% | viability, T/C [6]: 15.9% | viability, T/C [7]: 13.8% | viability, T/C [8]: 12.4% | viability, T/C [9]: 11.7% | viability, T/C [10]: 12.5% | viability, T/C [11]: 13% | viability, T/C [12]: 28.7% | viability, T/C [13]: 40.7% | viability, T/C [14]: 50.4% | viability, T/C [15]: 62.9% | viability, T/C [16]: 70.5% | viability, T/C [17]: 76.1% | viability, T/C [18]: 97.3% | viability, T/C [19]: 40.6% | viability, T/C [20]: 64.3% | viability, T/C [21]: 58.8% | viability, T/C [22]: 66.5% | viability, T/C [23]: 75% | viability, T/C [24]: 76.9% | viability, T/C [25]: 33.9% | viability, T/C [26]: 47.7% | viability, T/C [27]: 74.3% | viability, T/C [28]: 64.2% | viability, T/C [29]: 67.5% | viability, T/C [30]: 72.7% | viability, T/C [31]: 39.9% | viability, T/C [32]: 42.5% | viability, T/C [33]: 59.8% | viability, T/C [34]: 64.4% | viability, T/C [35]: 65.7% | viability, T/C [36]: 73.2%

IC50 (second compound 0.0316 µM): 9760 nM | IC50 (second compound 0.1 µM): 7740 nM | IC50 (second compound 0.316 µM): < 31.6 nM | IC50 (second compound 1 µM): < 31.6 nM | IC50 (second compound 3.16 µM): < 31.6 nM | IC50 (second compound 10 µM): < 31.6 nM
Structure (SMILES): COc1ccc([C@@H](O)c2cc(-c3ncnc4cc(N5CCOCC5)ccc34)c(F)cc2Cl)nn1 + CNC(=O)c1ccc(Nc2nc(OC3CCCC3)c3c(-c4ccc5nc(C)oc5c4)c[nH]c3n2)c(OC)c1
viability, T/C [1]: 105% | viability, T/C [2]: 93% | viability, T/C [3]: 97% | viability, T/C [4]: 85.3% | viability, T/C [5]: 67.4% | viability, T/C [6]: 49.7% | viability, T/C [7]: 90.6% | viability, T/C [8]: 89.3% | viability, T/C [9]: 83.7% | viability, T/C [10]: 82% | viability, T/C [11]: 60.5% | viability, T/C [12]: 47% | viability, T/C [13]: 30.8% | viability, T/C [14]: 27% | viability, T/C [15]: 26.8% | viability, T/C [16]: 24.6% | viability, T/C [17]: 22.4% | viability, T/C [18]: 24.2% | viability, T/C [19]: 20.2% | viability, T/C [20]: 22.2% | viability, T/C [21]: 20.5% | viability, T/C [22]: 17.5% | viability, T/C [23]: 22.4% | viability, T/C [24]: 16% | viability, T/C [25]: 21.3% | viability, T/C [26]: 20.5% | viability, T/C [27]: 20.4% | viability, T/C [28]: 15% | viability, T/C [29]: 19.2% | viability, T/C [30]: 18.1% | viability, T/C [31]: 19.6% | viability, T/C [32]: 17.1% | viability, T/C [33]: 21.7% | viability, T/C [34]: 20.1% | viability, T/C [35]: 19.1% | viability, T/C [36]: 15.7%

IC50 (second compound 0.0316 µM): < 31.6 nM | IC50 (second compound 0.1 µM): < 31.6 nM | IC50 (second compound 0.316 µM): < 31.6 nM | IC50 (second compound 1 µM): < 31.6 nM | IC50 (second compound 3.16 µM): < 31.6 nM | IC50 (second compound 10 µM): < 31.6 nM
Structure (SMILES): COc1cccc2c1C(=O)c1c(O)c3c(c(O)c1C2=O)CC(O)(C(=O)CO)CC3OC1CC(N)C(O)C(C)O1 (stereo unspecified) + CNC(=O)c1ccc(Nc2nc(OC3CCCC3)c3c(-c4ccc5nc(C)oc5c4)c[nH]c3n2)c(OC)c1
viability, T/C [1]: 26.4% | viability, T/C [2]: 13.9% | viability, T/C [3]: 5.64% | viability, T/C [4]: 0.45% | viability, T/C [5]: 0.38% | viability, T/C [6]: 0.54% | viability, T/C [7]: 19.4% | viability, T/C [8]: 11.8% | viability, T/C [9]: 5.03% | viability, T/C [10]: 0.29% | viability, T/C [11]: 1.37% | viability, T/C [12]: 2.64% | viability, T/C [13]: 16.4% | viability, T/C [14]: 13.1% | viability, T/C [15]: 6.53% | viability, T/C [16]: 0.2% | viability, T/C [17]: 0.98% | viability, T/C [18]: 0.49% | viability, T/C [19]: 12.5% | viability, T/C [20]: 10.1% | viability, T/C [21]: 4.27% | viability, T/C [22]: 0.27% | viability, T/C [23]: 0.56% | viability, T/C [24]: 3.36% | viability, T/C [25]: 18.9% | viability, T/C [26]: 13.1% | viability, T/C [27]: 4.42% | viability, T/C [28]: 0.23% | viability, T/C [29]: 0.79% | viability, T/C [30]: 1.4% | viability, T/C [31]: 21.1% | viability, T/C [32]: 13.5% | viability, T/C [33]: 8.07% | viability, T/C [34]: 0.28% | viability, T/C [35]: 2.28% | viability, T/C [36]: 3.42%
